Assay results taken from patent US8686044B2, “Amide derivative, pest control agent containing the amide derivative, and use of the amide derivative” (Mitsui Chemicals Agro, Inc., priority 2008, dated 2014).
Where two headings read alike, the source gives them in different places.

What was measured:
Assay type in all cases: in vivo
Helicoverpa armigera = test: Pesticidal test against Helicoverpa armigera (cabbage leaf disk dip); details: foliar, 72 h, concentration 1 ppm, 2-stage larvae, examined after 3 days, 25° C., read-out: pesticidal rate
Description: Pesticidal Test against Helicoverpa armigera A cabbage leaf disk was immersed for 30 seconds in a chemical solution in which a test compound had been prepared at a predetermined concentration, and air-dried. The leaf disk was put into a 6-hole plastic cup having a filter paper laid on the bottom thereof, and 2-stage larvae of Helicoverpa armigera were released with one insect being released per hole. They were left to stand in a thermostatic chamber at 25° C., and the numbers of the living pests and the dead pests were examined after 3 days. The test was carried out with five larvae per group in two replicates. Further, the above compound (A) was used as a comparative compound.

Spodoptera litura = test: Pesticidal test against Spodoptera litura (cabbage leaf dip); details: foliar, 144 h, 2-stage larvae, examined after 6 days, 25° C., read-out: pesticidal rate; for pest or weed control at 1 ppm: concentration 1 ppm
Outline: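 Cabbage leaf pieces dipped 30 seconds in compound solution at a predetermined concentration and air-dried, then offered to second-stage larvae, five per group in two replicates. Held at 25° C. Living and dead larvae counted after 6 days.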

Plutella xylostella = test: Pesticidal test against Plutella xylostella (cabbage leaf dip); details: foliar, 144 h, 2-stage larvae, examined after 6 days, 25° C., read-out: pesticidal rate; for pest or weed control at 1 ppm: concentration 1 ppm; for pest or weed control at 10 ppm: concentration 10 ppm
Outline: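 Cabbage leaf pieces dipped 30 s in test solution at a predetermined concentration, air-dried, then offered to 2nd-instar larvae, five per group in duplicate. Held at 25° C; living and dead larvae counted after 6 days.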

Laodelphax striatellus = test: Pesticidal test against Laodelphax striatellus (rice seedling spray); details: 144 h, read-out: pesticidal rate
Outline: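 Rice seedlings sprayed with 2.5 ml acetone solution of compound at a predetermined concentration, air-dried, then infested with third-stage Laodelphax striatellus larvae in capped water-containing tubes at 25 °C. Living and dead insects counted after 6 days; ten larvae per group, two replicates.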

Musca domestica = test: Pesticidal test against Musca domestica (petri dish dry film); details: 24 h, concentration 100 ppm, female adults, examined after 1 day, 25° C., read-out: pesticidal rate
Description: Pesticidal Test against Musca domestica
1 ml of an acetone solution in which a test compound had been prepared at a predetermined concentration was added dropwise to a petri dish having a diameter of 9 cm, and air-dried, and then the female adults of Musca domestica were released and the petri dish was capped. They were left to stand in a thermostatic chamber at 25° C., and the numbers of the living pests and the dead pests were examined after 1 day. The test was carried out with five larvae per group in two replicates.

[1] = concentration 100 ppm, 3-stage larvae, examined after 6 days, 25° C.

CN(C(=O)c1ccc(C#N)cc1)c1cccc(C(=O)Nc2c(I)cc(C(F)(C(F)(F)F)C(F)(F)F)cc2C(F)(F)F)c1F [7-1751]
≥ 70%: pest or weed control at 1 ppm (Helicoverpa armigera) | pest or weed control at 1 ppm (Spodoptera litura) | pest or weed control at 1 ppm (Plutella xylostella) | pest or weed control at 100 ppm (Laodelphax striatellus; [1])

CN(C(=O)c1ccccc1)c1cccc(C(=O)Nc2c(Cl)cc(C(F)(C(F)(F)F)C(F)(F)F)cc2C(F)(F)F)c1F [7-1417]
≥ 70%: pest or weed control at 1 ppm (Spodoptera litura) | pest or weed control at 1 ppm (Plutella xylostella) | pest or weed control at 100 ppm (Musca domestica) | pest or weed control at 100 ppm (Laodelphax striatellus; [1])

CN(C(=O)c1cccc(F)c1)c1cccc(C(=O)Nc2c(I)cc(C(F)(C(F)(F)F)C(F)(F)C(F)(F)F)cc2I)c1F (stereo not shown) [7-1340]
≥ 70%: pest or weed control at 1 ppm (Spodoptera litura) | pest or weed control at 1 ppm (Plutella xylostella) | pest or weed control at 100 ppm (Musca domestica) | pest or weed control at 100 ppm (Laodelphax striatellus; [1])

CN(C(=O)c1ccccc1)c1cccc(C(=O)N(C)c2c(Br)cc(C(F)(C(F)(F)F)C(F)(F)F)cc2C(F)(F)F)c1F [9-2164, N-(2-bromo-4-(perfluoropropan-2-yl)-6-(trifluoromethyl)phenyl)-2-fluoro-N-methyl-3-(N-methylbenzamide)benzamide]
≥ 70%: pest or weed control at 1 ppm (Spodoptera litura) | pest or weed control at 1 ppm (Plutella xylostella) | pest or weed control at 100 ppm (Musca domestica) | pest or weed control at 100 ppm (Laodelphax striatellus; [1])

O=C(Nc1cccc(C(=O)Nc2c(Br)cc(C(F)(C(F)(F)F)C(F)(F)F)cc2C(F)(F)F)c1F)OCC(Cl)(Cl)Cl [11-777]
≥ 70%: pest or weed control at 1 ppm (Spodoptera litura) | pest or weed control at 1 ppm (Plutella xylostella) | pest or weed control at 100 ppm (Musca domestica)

CN(C(=O)c1ccccc1)c1cccc(C(=O)Nc2c(Br)cc(C(F)(C(F)(F)F)C(F)(F)C(F)(F)F)cc2C(F)(F)F)c1 (stereo not shown) [7-346]
≥ 70%: pest or weed control at 1 ppm (Spodoptera litura) | pest or weed control at 1 ppm (Plutella xylostella) | pest or weed control at 100 ppm (Musca domestica) | pest or weed control at 100 ppm (Laodelphax striatellus; [1])

O=C(Nc1c(Br)cc(C(F)(C(F)(F)F)C(F)(F)F)cc1C(F)(F)F)c1cccc(NC(=O)c2ccccc2Cl)c1 [6-272]
≥ 70%: pest or weed control at 1 ppm (Spodoptera litura) | pest or weed control at 1 ppm (Plutella xylostella) | pest or weed control at 100 ppm (Musca domestica)

CN(C(=O)c1c(F)cccc1F)c1cccc(C(=O)Nc2c(Br)cc(C(F)(C(F)(F)F)C(F)(F)C(F)(F)F)cc2C(F)(F)F)c1 (stereo not shown) [7-368]
≥ 70%: pest or weed control at 1 ppm (Spodoptera litura) | pest or weed control at 1 ppm (Plutella xylostella) | pest or weed control at 100 ppm (Musca domestica) | pest or weed control at 100 ppm (Laodelphax striatellus; [1])

O=C(Nc1c(Br)cc(C(F)(C(F)(F)F)C(F)(F)F)cc1C(F)(F)F)c1cccc(NC(=O)c2ccc(F)cc2Cl)c1 [6-293]
≥ 70%: pest or weed control at 1 ppm (Spodoptera litura) | pest or weed control at 1 ppm (Plutella xylostella) | pest or weed control at 100 ppm (Musca domestica)

N#Cc1ccc(C(=O)Nc2c(Br)cc(C(F)(C(F)(F)F)C(F)(F)F)cc2C(F)(F)F)c(F)c1NC(=O)c1ccc(Cl)nc1 [1-1968, N-(3-(2-bromo-4-(perfluoropropan-2-yl)-6-(trifluoromethyl)phenylcarbamoyl)-6-cyano-2-fluorophenyl)-6-chloronicotinamide]
≥ 70%: pest or weed control at 10 ppm (Spodoptera litura; concentration 10 ppm) | pest or weed control at 1 ppm (Plutella xylostella) | pest or weed control at 100 ppm (Musca domestica)

O=C(Nc1cccc(C(=O)Nc2c(I)cc(C(F)(C(F)(F)F)C(F)(F)C(F)(F)F)cc2I)c1F)c1cccnc1Cl (stereo not shown) [6-1374]
≥ 70%: pest or weed control at 1 ppm (Spodoptera litura) | pest or weed control at 1 ppm (Plutella xylostella) | pest or weed control at 100 ppm (Musca domestica) | pest or weed control at 100 ppm (Laodelphax striatellus; [1])

O=C(Nc1cccc(C(=O)Nc2c(I)cc(C(F)(C(F)(F)F)C(F)(F)C(F)(F)F)cc2C(F)(F)F)c1F)c1cccc(F)c1 (stereo not shown) [6-1810]
≥ 70%: pest or weed control at 1 ppm (Spodoptera litura) | pest or weed control at 1 ppm (Plutella xylostella) | pest or weed control at 100 ppm (Musca domestica) | pest or weed control at 100 ppm (Laodelphax striatellus; [1])

CN(C(=O)OCC(Cl)(Cl)Cl)c1cccc(C(=O)Nc2c(I)cc(C(F)(C(F)(F)F)C(F)(F)F)cc2C(F)(F)F)c1F [12-835]
≥ 70%: pest or weed control at 1 ppm (Spodoptera litura) | pest or weed control at 1 ppm (Plutella xylostella) | pest or weed control at 100 ppm (Musca domestica) | pest or weed control at 100 ppm (Laodelphax striatellus)

CN(C(=O)c1cccc(F)c1)c1cccc(C(=O)N(C)c2c(I)cc(C(F)(C(F)(F)F)C(F)(F)F)cc2C(F)(F)F)c1F [9-2322]
≥ 70%: pest or weed control at 1 ppm (Spodoptera litura) | pest or weed control at 1 ppm (Plutella xylostella) | pest or weed control at 100 ppm (Musca domestica) | pest or weed control at 100 ppm (Laodelphax striatellus; [1])

CN(C(=O)c1ccccc1)c1nc(C(=O)Nc2c(Br)cc(C(F)(C(F)(F)F)C(F)(F)F)cc2C(F)(F)F)cs1 [27-627]
≥ 70%: pest or weed control at 1 ppm (Spodoptera litura) | pest or weed control at 10 ppm (Plutella xylostella) | pest or weed control at 100 ppm (Musca domestica)

N#Cc1ccc(C(=O)Nc2cccc(C(=O)Nc3c(I)cc(C(F)(C(F)(F)F)C(F)(F)F)cc3I)c2F)cc1 [6-1281]
≥ 70%: pest or weed control at 1 ppm (Helicoverpa armigera) | pest or weed control at 1 ppm (Spodoptera litura) | pest or weed control at 1 ppm (Plutella xylostella) | pest or weed control at 100 ppm (Musca domestica) | pest or weed control at 100 ppm (Laodelphax striatellus; [1])

O=C(Nc1c(I)cc(C(F)(C(F)(F)F)C(F)(F)F)cc1C(F)(F)F)c1cccc(NC(=O)c2ccc(Cl)cc2Br)c1 [6-452]
≥ 70%: pest or weed control at 1 ppm (Spodoptera litura) | pest or weed control at 10 ppm (Plutella xylostella) | pest or weed control at 100 ppm (Musca domestica)

CN(C(=O)c1ccccc1F)c1cccc(C(=O)Nc2c(Br)cc(C(F)(C(F)(F)F)C(F)(F)C(F)(F)F)cc2Br)c1 (stereo not shown) [7-39]
≥ 70%: pest or weed control at 1 ppm (Spodoptera litura) | pest or weed control at 1 ppm (Plutella xylostella) | pest or weed control at 100 ppm (Musca domestica)

CN(C(=O)c1cccc(C#N)c1)c1cccc(C(=O)Nc2c(I)cc(C(F)(C(F)(F)F)C(F)(F)C(F)(F)F)cc2C(F)(F)F)c1F (stereo not shown) [7-1828]
≥ 70%: pest or weed control at 1 ppm (Spodoptera litura) | pest or weed control at 1 ppm (Plutella xylostella) | pest or weed control at 100 ppm (Musca domestica) | pest or weed control at 100 ppm (Laodelphax striatellus; [1])

O=C(Nc1cccc(C(=O)Nc2c(I)cc(C(F)(C(F)(F)F)C(F)(F)F)cc2C(F)(F)F)c1F)OCC(Cl)(Cl)Cl [11-835]
≥ 70%: pest or weed control at 1 ppm (Spodoptera litura) | pest or weed control at 1 ppm (Plutella xylostella) | pest or weed control at 100 ppm (Musca domestica)

CN(C(=O)OCC(Cl)(Cl)Cl)c1cccc(C(=O)Nc2c(I)cc(C(F)(C(F)(F)F)C(F)(F)C(F)(F)F)cc2C(F)(F)F)c1F (stereo not shown) [12-864, 2,2,2-trichloroethyl 2-fluoro-3-(2-iodo-4-(perfluorobutan-2-yl)-6-(trifluoromethyl)phenylcarbamoyl)phenyl(methyl)carbamate]
≥ 70%: pest or weed control at 1 ppm (Spodoptera litura) | pest or weed control at 1 ppm (Plutella xylostella) | pest or weed control at 100 ppm (Musca domestica) | pest or weed control at 100 ppm (Laodelphax striatellus)

O=C(Nc1c(I)cc(C(F)(C(F)(F)F)C(F)(F)C(F)(F)F)cc1I)c1cccc(NC(=O)c2c(F)cccc2F)c1F (stereo not shown) [6-1360]
≥ 70%: pest or weed control at 1 ppm (Spodoptera litura) | pest or weed control at 1 ppm (Plutella xylostella) | pest or weed control at 100 ppm (Musca domestica) | pest or weed control at 100 ppm (Laodelphax striatellus; [1])

CN(C(=O)c1c(F)cccc1F)c1cccc(C(=O)Nc2c(I)cc(C(F)(C(F)(F)F)C(F)(F)C(F)(F)F)cc2I)c1F (stereo not shown) [7-1360]
≥ 70%: pest or weed control at 1 ppm (Spodoptera litura) | pest or weed control at 1 ppm (Plutella xylostella) | pest or weed control at 100 ppm (Musca domestica) | pest or weed control at 100 ppm (Laodelphax striatellus; [1])

O=C(Nc1cccc(C(=O)Nc2c(I)cc(C(F)(C(F)(F)F)C(F)(F)C(F)(F)F)cc2C(F)(F)F)c1F)c1ccccc1 (stereo not shown) [6-1808]
≥ 70%: pest or weed control at 1 ppm (Helicoverpa armigera) | pest or weed control at 1 ppm (Spodoptera litura) | pest or weed control at 1 ppm (Plutella xylostella) | pest or weed control at 100 ppm (Musca domestica) | pest or weed control at 100 ppm (Laodelphax striatellus; [1])

O=C(Nc1cccc(C(=O)Nc2c(I)cc(C(F)(C(F)(F)F)C(F)(F)F)cc2C(F)(F)F)c1F)c1ccccc1Cl [6-1734]
≥ 70%: pest or weed control at 1 ppm (Spodoptera litura) | pest or weed control at 1 ppm (Plutella xylostella) | pest or weed control at 100 ppm (Musca domestica) | pest or weed control at 100 ppm (Laodelphax striatellus; [1])
